Test results taken from patent publication US20020177120A1, “ASSAYS FOR APOTOSIS MODULATORS” (priority 1999, published 2002).

Columns and labels:
Format in all cases: cell-based, human
caspase-3 [1] = assay: Inducibility and kinetics of apoptosis in U-138 cells (caspase-3 activity, inter-nucleosomal DNA fragmentation)
Protocol: DNA Fragmentation ELISA: Apoptosis-induced inter-nucleosomal fragmentation of chromosomal DNA was quantified using the “Cell Death Detection ELISA^PLUS” (Boehringer Mannheim) according to the manufacturer's instructions. Briefly, ˜10^4 cells/well were plated on a poly-D-lysine-coated 96-well plate and treated for various periods of times with different apoptosis-inducing agents. The cells were lysed and the nuclei and membranes were pelleted. An aliquot of the cytoplasm-containing supernatant was then transferred to a streptavidin-coated microtiter plate and incubated with anti-histone-biotin and anti-DNA-peroxidase, resulting in the formation of “sandwich” antibody complexes, i.e., (anti-DNA-peroxidase)-(nucleosomal-DNA-containing-histone) -(anti-histone-biotin)-(streptavidin-microtiter plate). Unbound antibody was removed by washing. Peroxidase substrate (i.e., ABTS) was added and nucleosomal DNA complexes quantified by spectrophotometric analysis of the colored peroxidase reaction product.
Caspase-3 Assay: Caspase-3 activity was assayed according to the following protocol. Cells plated and treated as above were washed in 1×PBS and lysed in 1×assay buffer (1 mM DTT, 1% Triton X-100, 0.5% Tween-20 in 1×PBS, pH 7.2). […] Fluorescence readings were taken on the Cytofluor II plate reader (excitation 360 nm, emission 460 nm, 6 reads/well, gain 50).

HEK293 cells = assay: Annexin V apoptotic membrane assay in SAT-reporter-transformed HEK293 cells; settings: staurosporin, 4 hrs.
Excerpt: A test system was constructed to evaluate SAT reporter expression and feasibility of detecting FRET signal changes in mammalian cells in microtiter assays. The human embryonic kidney-derived HEK293 cell line was chosen as a host because of its relatively high transfection efficiency, rapid growth, easy maintenance and suitability for microplate assay formats. In preliminary experiments in which HEK293 cells were transfected with pcDNA3-Emerald, transformed cells were fluorescent and there was no loss of fluorescence, or obvious detrimental effects on cell morphology or growth, in a selected pool of cells (i.e., mixed populations of cells) over the course of one month. […] Optimal conditions for transfection of HEK 293 cells with SAT-reporter plasmid were determined. Cells transfected using LIPOFECTAMINE (Life Technologies) and selected in G418 (Life Technologies) expressed full-length SAT reporter protein as determined by western analysis of transformed HEK293 cells after two weeks of in vitro selection. […] Under these conditions of treatment with staurosporin only about half of the SAT-reporter-transformed HEK293 cells in the population were apoptotic at 4 hrs. as determined using the Annexin V assay (Materials and Methods). […]

F10-24-2 control cells = assay: FRET reporter control assay in F10-24-2 (SnAT) cells
Excerpt: Transfection of pcDNA3VH-SgAT and pcDNA3VH-SnAT into U-138 cells (using methods described above) resulted initially in few colonies and FRET signal was lost in many clones during expansion, however, from among the various subclones the F9-1-13 (pcDNA3VH-SgAT transfected; ATCC No. PTA-84) and F10-24-2 (pcDNA3-SnAT transfected) subclones were eventually expanded and shown to express stable FRET signals. As desired, the FRET signal expressed in F9-1-13 decreased in response to both staurosporin and anti-Fas antibody treatment of cells, while the FRET signal expressed by the F10-24-2 control cells, (i.e., lacking a caspase substrate domain), was unaffected following staurosporin or anti-Fas antibody treatment. […] F9-1-13 therefore appeared suitable for microtiter assays, and perhaps use in HTS assays for screening to identify and select modulators of apoptosis.

caspase-3 [2] = assay: Caspase-3 assay in SAT-reporter-transformed HEK293 cells after apoptosis inducers; settings: confluent HEK293, 1-5 μM staurosporin for 8 hrs.

Q: What does the source list for `CN[C@@H]1C[C@H]2O[C@@](C)([C@@H]1OC)n1c3ccccc3c3c4c(c5c6ccccc6n2c5c31)C(=O)NC4` [staurosporin]?
A: time at which caspase-3 activity and inter-nucleosomal DNA fragmentation were maximally altered (caspase-3 [1]; 5 μM staurosporin, minimal at 4 hrs., intermediate by 8 hrs.): 16 to 24 h; inducibility of caspase-3 activity (caspase-3 [1]; 30-300 μM etoposide or 1.5-15.0 μM staurosporin, 8 hrs.): inducible with staurosporin; cells in the population apoptotic (Annexin V assay) (HEK293 cells): about half; FRET signal response to inducer treatment (F10-24-2 control cells; reporter lacking a caspase substrate domain): unaffected; FRET reporter western blot before and after induction of apoptosis (F10-24-2 control cells; staurosporin induction): no visible difference; increase in caspase-3 activity over background (caspase-3 [2]): 6- to 10 fold
